Values quoted from earlier work, collected in patent US7632828B2, “Gram-positive carbapenem antibacterials and processes for their preparation” (FOB Synthesis, Inc., priority 2004, dated 2009).

What was measured:
[1] = molecular target: T1, mammalian β-lactamase renal dehydropeptidase-I (DHP-I) (Homo sapiens, UniProt P16444)
T1 sequence (P16444 17-385): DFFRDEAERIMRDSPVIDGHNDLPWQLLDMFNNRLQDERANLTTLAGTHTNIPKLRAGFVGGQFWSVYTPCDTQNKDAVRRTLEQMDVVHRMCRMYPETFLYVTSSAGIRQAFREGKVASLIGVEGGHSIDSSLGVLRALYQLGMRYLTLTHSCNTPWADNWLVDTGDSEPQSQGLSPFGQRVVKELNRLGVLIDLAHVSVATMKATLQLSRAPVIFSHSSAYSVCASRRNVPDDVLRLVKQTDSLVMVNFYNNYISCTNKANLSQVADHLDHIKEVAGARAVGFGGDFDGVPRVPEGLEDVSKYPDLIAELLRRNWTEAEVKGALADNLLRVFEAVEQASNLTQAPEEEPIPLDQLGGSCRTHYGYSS

[2] = test subjects
[3] = tested on: Pseudomonas spp.
[4] = due to its lactam nucleus and amino acid configuration
[5] = molecular target: T2, kidney dehydropeptidase (Homo sapiens, UniProt P16444)
T2 sequence (P16444 17-385): T1 sequence (P16444 17-385)

[6] = tested on: wide bacterial spectrum
[7] = tested on: Gram-negative bacteria

Compound: C[C@@H](O)[C@H]1C(=O)N2C(C(=O)O)=C(SCCN=CN)C[C@H]12 [imipenem, N-formimidoyl thienamycin]
- stability to renal dehydropeptidase-I (DHP-I) [1]: instability
- urinary tract recovery [2]: poor urinary tract recovery

Compound: C[C@@H](O)[C@H]1C(=O)N2C(C(=O)O)=C(SCCN)C[C@H]12 [thienamycin]
- activity against Pseudomonas spp. [3]: active against Pseudomonas spp.
- chemical stability [4]: chemically unstable

Compound: Biapenem
- stability against hydrolysis by kidney dehydropeptidase [5]: stability against hydrolysis by kidney dehydropeptidase
- potency across bacterial spectrum [6]: exhibits potency across a wide bacterial spectrum

Compound: meropenem
- activity against Gram-negative bacteria [7]: active against a large number of Gram-negative bacteria
